Earlier results in patent publication US20220362242A1, “METHODS AND COMPOSITIONS FOR TREATING MOVEMENT DISORDERS” (Edgewise Therapeutics, Inc., priority 2018, published 2022).

System: embryos from zebrafish model of DMD
Settings: control vs BTS treated muscles, FIG. 2

Cc1ccc(S(=O)(=O)NCc2ccccc2)cc1 [BTS, N-benzyl-p-tolyl-sulfonamide]
protection of muscles from pathological muscle derangement: protect muscles from pathological muscle derangement
